Like-named read-outs stand apart in the source and are kept apart here. *1 amine or outer side, *2 acyl side, *3 side chain or, on linkers, in order; H or OH if unused. Where a SMILES comes first, the peptide text is derived from it. Bridges are numbered along the chain shown (N, C = ends). [ ]: non-standard residue; d: D form. The star is where a group is joined. 5FAM = O=C1OC2(c3ccc(O)cc3Oc3cc(O)ccc32)c2ccc(C(=O)*)cc21; Palmitoleoyl = CCCCCC/C=C\CCCCCCCC(=O)*; Glutaryl = O=C(CCCC(=O)[*:2])[*:1]; NMeNva = CCC[C@H](NC)C(=O)O; NMeA = CN[C@@H](C)C(=O)O

Data on nine molecules can be found in patent publication US20180312539A1, “METHODS FOR PREPARING HIGH THROUGHPUT PEPTIDOMIMETICS, ORALLY BIOAVAILABLE DRUGS AND COMPOSITIONS CONTAINING SAME” (University of Southern California, priority 2011, published 2018).

Details of data set [1]: species or system C57BL6 mice. The following applies: mouse, in vivo, 10 mg/kg. As to the method: The following peptides were synthesized for oral administration: […](FAM) (SEQ ID NO: 14), […](FAM)DK(Palmitoleic acid) (SEQ ID NO: 15), and […](FAM) (SEQ ID NO: 16), wherein FAM is a lysine derivative containing fluorescein. All peptides were cyclized from the side chain to lysine to the N-terminus as previously described. Anesthetized C57BL6 mice had peptide administered at a dose of 10 mg/kg by oral gavage. After administration, mice were removed from isoflurane. At various time points, blood samples were taken by orbital bleeding as previously described. Peaks were normalized to a 15 minute time point from mice that had peptide administered by IV injection.
The following peptides were synthesized for oral administration: […](FAM) (SEQ ID NO: 14), […](FAM) (SEQ ID NO: 16), […](FAM)DK(biotin) (SEQ ID NO: 38), and […](FAM)DK(Palmitoleic acid) (SEQ ID NO: 15). All peptides were cyclized from the side chain to lysine to the N-terminus as previously described in Millward, S. W. et al. (2007) ACS Chem. Biol. 2:625. Anesthetized C57BL6 mice had peptide administered at a dose of 10 mgs/Kg by oral gavage. After administration, mice were removed from isoflurane. At various time points, blood samples were taken by orbital bleeding as previously described. Peaks were normalized to a 20 minute time point from mice that had peptide administered by IV injection. Area under the curve was analyzed by Graphpad 5.0.
In addition to accessing intracellular targets in cell culture, deriving a simple modification that would facilitate oral bioavailability of peptidic ligands would be greatly beneficial for therapeutic development. Intestinal absorption of both fatty acids and biotin is nearly 100% efficient. Zempleni, J. and Mock, D. M. (1999) The American Journal of Clinical Nutrition 69:504. […] Applicants synthesized a protease resistant peptide with the sequence […]-mod (designated SUPR peptide) (SEQ ID NO: 50), where A is N-methyl alanine, the peptide is cyclized from lysine to the N-terminus, and K(mod) is lysine with a modified sidechain including either biotin or palmitoleic acid. Palmitoleic acid is a monounsaturated fatty acid chosen for its ability to bind human serum albumin, and its low melting point allowing for more favorable solubility of conjugated peptides as compared to […] fatty acid conjugates. This peptide was administered to mice at a dose of 10 mg/kg by oral gavage. At various time points, blood was taken from the mice by orbital bleeding. After processing, fluorescence was quantified and compared to the maximum signal obtained by IV injection of peptide at the same dose.

For data set [2] the following is noted: mouse, in vivo, iv, 10 mg/kg.
Protocol: (§1) 200 μL of peptide was administered by IV injection into the tail vein of C57BL6 mice at a dose of 10 mg/kg. 50 μL blood samples were taken at various time points by orbital bleeding using heparin coated capillary tubes and isoflurane for anesthesia. Samples are diluted to 600 μLin TE buffer (pH=8.0) then filtered by centrifugation through a 3000 MWCO filter. The flowthrough was analyzed on a Shimadzu RF-5301 PC fluorometer. Time points were integrated and analyzed using Prism 5.0 software.
(§2) To that end mice were administered peptide conjugated to fluorescein by IV injection into the tail vein. Blood samples were taken by orbital bleeding. Blood peptide concentration was determined by comparing fluorescence to a 15 minute time point.
The conditions of data set [3]: mouse, iv.
Protocol: as §1, §2
A further data set has as its system SKBR-3 cells. Type of data set: cell-based, human. How it is done: Proliferation was measured by standard BrdU cell proliferation assay (Calbiochem). Cell lines were plated in 96-well plates (20,000 cells/well) in D-10 media with indicated amount of peptide with 2% DMSO, and incubated overnight. The BrdU compound was given to the cells for 2 hrs. Following the manufacturer's protocol, samples were analyzed by UV absorbance measurements at 450 nm. Peptide signal was normalized to cells incubated with 2% DMSO but no peptide. IC50 data was generated by fitting the data to a drug response equation (Log(drug) vs. Response, GraphPad Prism 5.0).
The peptides were then screened for function using a standard in vitro assays used to test efficacy of Her-2 targeting molecules. The assay involved analyzing a molecule's ability to inhibit proliferation in cell culture. A widely used kit is the BrdU cell proliferation assay. In this assay, cells are incubated with the molecule of interest before having their media supplemented with a bromodeoxyuridine. Bromodeoxyuridine is incorporated into the DNA of proliferating cells. DNA with this modified base is recognized with an antibody, and quantitated by ELISA. Applicants tested the peptides and compared them with their parental molecules.

The conditions of data set [4]: cited from earlier work; for oral bioavailability: as known in the field.
The next data set is described as follows: b. The source says:
Table printed on a drawing sheet, FIGURES 5A and 5B
FIG. 5A is Vmax for chymotrypsin digestion of cycGIBP(•), linSUPR(♦), and cycSUPR(▪). A close up of linSUPR and cycSUPR is embedded in the Figure to show the data in more detail. FIG. 5B is a Table showing values for Km and Vmax as derived by processing the data through Graphpad Prism 5.0. Both Km and Vmax are highly optimized for protease resistance in cycSUPR peptide when compared to cycGIBP.
First reader's note: Km and Vmax are kinetic parameters of chymotrypsin digestion of the peptides (protease stability); the sheet prints no unit for Km.

Another data set is described as follows: Human serum digests. It is filed as in vitro ADME. The note with it: reconstituted human serum, 37° C. As to the method: Delipidated/lyophilized human serum was purchased from Thermo Scientific and reconstituted as per manufacturer's instructions. 250 nmoles of peptide in 50 μLs of sodium phosphate buffer (pH=8.0) with 10% DMSO was added to 1 mL of reconstituted serum and incubated at 37° C. 100 μL aliquots were taken at various time points and quenched in 300 μLs of acetonitrile. Samples were spun down and decanted to remove precipitate followed by dilution in water to 1.5 mLs. Samples were then analyzed by HPLC as described in the protease resistance experiment.
Delipidated/lyophilized human serum was purchased from Thermo Scientific and reconstituted as per manufacturer's instructions. 250 nmoles of peptide in 50 μL of sodium phosphate buffer (pH=8.0) with 10% DMSO was added to 1 mL of reconstituted serum and incubated at 37° C. 100 μL aliquots were taken at various time points and quenched in 300 μL of acetonitrile. Samples were spun down and decanted to remove precipitate followed by dilution in water to 1.5 mLs.
The human serum and human microsome stability of the Gαi1 binding SUPR peptide ([…] (SEQ ID NO: 7)) were compared to the peptides ability to bind to Her-2. Beginning with the human serum analysis, peptides were digested with 95% human serum at 37° C. Analysis was performed by HPLC. […] Therefore, intact peptide is only completely unmodified peptide. Digestions of SUPR, HMP, and PMP are show have lives very similar to SUPR. Digestion of PMP2 is in progress. Without being bound by theory, Applicants theorize that the fitting for HMP may have produced an artificially low half-life.

Another data set deals with blood sugar. Nature of the data set: Blood glucose response to insulin. It is filed as in vivo, C57BL6 mice. The note with it: oral gavage, 7 nmol/kg. How it is done:
Experimental procedure followed previously published protocols with slight modification, see e.g., (McKern, N. M., et al. (2006) Nature 443:218; Schïffer, L., et al (2003) PNAS 100:4435). Briefly, C57BL6 mice (4 in each group) fasted overnight and were anesthetized using isoflurane prior to taking blood samples by orbital bleeding. Mice were dosed with insulin or biotinylated insulin at a concentration of 3.5 nmol/kg by IV injection into the tail vein. […] In all cases, insulin was in 150 μL of 50 mM sodium phosphate buffer (pH=8.0). Blood was analyzed on a standard Clarity Plus blood glucose meter (VWR). Readings were normalized to a T=0 blood sugar measurement, and analyzed on Graphpad 5.0.
Reacting human insulin with biotin-NHS produced three distinct products that can be separated by HPLC. […] Calceti, P. et al. (2004) European Journal of Pharmaceutical Sciences 22:315; and Tuesca, A., et al. (2009) Pharmaceutical Research 26:727.
Biotinylated insulin and insulin were fed to mice by oral gavage. […] The longer duration of response is likely due to the kinetics of absorption by the intestinal mucosa.

The term bioavailability denotes the share of a dose that reaches the circulation, judged against a reference dose that is usually intravenous. Read a low bioavailability as little systemic uptake. One may read the half-life as the time in which the quantity being followed falls by half. A high value points to slow decline. In data set [1], `CCCCCC/C=C\CCCCCCCC(=O)NCCCC[C@@H](NC(=O)[C@H](CCCCNC(=O)c1ccc2c(c1)C(=O)OC21c2ccc(O)cc2Oc2cc(O)ccc21)NC(=O)[C@@H]1CCCCNC(=O)CCCC(=O)N[C@@H](CCSC)C(=O)N[C@@H](Cc2ccccc2)C(=O)N[C@@H](Cc2ccc(O)cc2)C(=O)N(C)[C@@H](C)C(=O)N[C@@H](Cc2ccc(O)cc2)C(=O)N[C@@H](CCC(=O)O)C(=O)N[C@@H](Cc2ccc(O)cc2)C(=O)N(C)[C@@H](C)C(=O)N[C@@H](CCC(N)=O)C(=O)N[C@@H](Cc2c[nH]c3ccccc23)C(=O)N[C@@H](CO)C(=O)N1)C(=O)O` [FA-cycSUPR] (MFY[NMeA]YEY[NMeA]QWSKK(5FAM)[dK](Palmitoleoyl)-OH; linker N-12 via Glutaryl) showed a bioavailability of 9.8%. In addition, in data set [1] (po), the oral uptake efficiency amounted to 9.4%. This molecule also had a half-life in data set [2] of 1100 min. The “fold increase in in vivo half-life over cycGIBP” value in data set [3] was found to be 354 fold. `CCC[C@H]1C(=O)N(C)[C@@H](CCC)C(=O)N[C@@H](CC(C)C)C(=O)N[C@@H](Cc2ccc(O)cc2)C(=O)N[C@@H](CC(=O)O)C(=O)N[C@@H](CC(=O)O)C(=O)N[C@H](C(N)=O)CCCCNC(=O)CCCC(=O)N[C@@H](CCSC)C(=O)N[C@@H](C(C)C)C(=O)N[C@@H](CS)C(=O)N1C` [Peptide D] (MVC[NMeNva][NMeNva]LYDDK-NH2; linker N-10 via Glutaryl (inferred); C-terminus assumed): in the data set with SKBR-3 cells (EC50/IC50 ratio, peptide 1 vs HRAP, peptide D vs ANHP), the “fold improvement with respect to parental molecule” value was approximately 110 fold. In the data set on SKBR-3 cells (concentrations significantly above the EC50), the “proliferation relative to untreated cells (maximal effect)” value is reported as 56%.

Turning to `O=C(O)CCCC[C@@H]1SC[C@@H]2NC(=O)N[C@@H]21` [biotin], the intestinal absorption efficiency in data set [4] (Zempleni and Mock (1999)) is approximately 100%. The oral bioavailability in data set [4] is listed as approximately 100%.

As to `CC[C@H](C)[C@@H]1NC(=O)[C@H](CCSC)NC(=O)CCCC(=O)NCCCC[C@@H](C(N)=O)NC(=O)[C@H]([C@@H](C)O)NC(=O)CNC(=O)[C@H](C)NC(=O)[C@H](C(C)C)NC(=O)[C@H](Cc2ccccc2)NC(=O)[C@H](CCC(=O)O)NC(=O)[C@H](Cc2ccc(O)cc2)NC(=O)[C@H](Cc2c[nH]c3ccccc23)NC(=O)[C@H]([C@@H](C)O)NC1=O` [cycGIBP, reference compound] (MITWYEFVAGTK-NH2; linker N-12 via Glutaryl), the half-life in data set [2] was found to be 3.1 min. Broadly, the Vmax is the rate approached at saturating substrate. `CC[C@H](C)[C@@H]1NC(=O)[C@H](CCSC)NC(=O)CCCC(=O)NCCCC[C@@H](C(N)=O)NC(=O)[C@H]([C@@H](C)O)NC(=O)CNC(=O)[C@H](C)NC(=O)[C@H](C(C)C)NC(=O)[C@H](Cc2ccccc2)NC(=O)[C@H](CCC(=O)O)NC(=O)[C@H](Cc2ccc(O)cc2)NC(=O)[C@H](Cc2c[nH]c3ccccc23)NC(=O)[C@H]([C@@H](C)O)NC1=O` [cycGIBP] (MITWYEFVAGTK-NH2; linker N-12 via Glutaryl): the “Vmax” value in the data set “b” was found to be 37 nmol/s. In the data set “Human serum digests”, `CSCC[C@H](N)C(=O)N[C@@H](Cc1ccccc1)C(=O)N[C@@H](Cc1ccc(O)cc1)C(=O)N(C)[C@@H](C)C(=O)N[C@@H](Cc1ccc(O)cc1)C(=O)N[C@@H](CCC(=O)O)C(=O)N[C@@H](Cc1ccc(O)cc1)C(=O)N(C)[C@@H](C)C(=O)N[C@@H](CCC(N)=O)C(=O)N[C@@H](Cc1c[nH]c2ccccc12)C(=O)N[C@@H](CO)C(=O)N[C@@H](CCCCN)C(N)=O` [linSUPR] showed a half-life of 16.2 min. On to `CCCCCC/C=C\CCCCCCCC(=O)O` [palmitoleic acid], for which, in data set [4], the oral bioavailability was approximately 100%. “biotinylated insulin: human insulin singly biotinylated on the N-terminus of the B-chain”: the “effect on blood sugar” value with blood sugar was “produced a typical insulin response”. Turning to “insulin: unmodified human insulin [reference compound]”, in the data set with blood sugar, the “effect on blood sugar” value was “no effect on blood sugar”.
